From patent US20190185518A9, “WARHEAD-CONTAINING PEPTIDOMIMETIC MACROCYCLES AS MODULATORS OF BFL-1” (AILERON Therapeutics, Inc., priority 2017, published 2019)
Positions of bridges follow the written chain, without caps; N, C: chain ends. Non-standard residues stand in square brackets, D forms with d. Residues, ends and D or L forms follow the SMILES beside them. R8 = C=CCCCCCC[C@@](C)(N)C(=O)O; Cit = NC(=O)NCCC[C@H](N)C(=O)O; S5 = C=CCCC[C@](C)(N)C(=O)O

Experiments:
Bcl-2 = Bcl-2 (Homo sapiens, UniProt P10415); assay: Ki determination for Bcl-2 (BCL-2 family binding spectrum); conditions: read-out: Ki BCL-2
Bcl-2, sequence (P10415 whole entry, species assumed): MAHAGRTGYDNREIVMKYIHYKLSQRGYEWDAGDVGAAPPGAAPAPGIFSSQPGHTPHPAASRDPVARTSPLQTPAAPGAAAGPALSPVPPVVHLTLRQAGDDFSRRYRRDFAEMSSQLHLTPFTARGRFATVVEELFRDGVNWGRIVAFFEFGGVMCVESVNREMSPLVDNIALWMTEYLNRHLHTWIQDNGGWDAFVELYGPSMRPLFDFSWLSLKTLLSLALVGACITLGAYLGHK
In short: (§1)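 Competitive fluorescence polarization: compounds (1 nM–1 mM) with 25 nM fluoresceinated peptidomimetic macrocycle and 50 nM protein in 140 mM NaCl, 50 mM Tris-HCl pH 7.4, 30 min at room temperature. Constants from nonlinear regression.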

Mcl-1 = Mcl-1 (Homo sapiens, UniProt Q07820); assay: Ki determination for Mcl-1 (BCL-2 family binding spectrum); conditions: read-out: Ki MCL-1
Mcl-1, sequence (Q07820 whole entry, species assumed): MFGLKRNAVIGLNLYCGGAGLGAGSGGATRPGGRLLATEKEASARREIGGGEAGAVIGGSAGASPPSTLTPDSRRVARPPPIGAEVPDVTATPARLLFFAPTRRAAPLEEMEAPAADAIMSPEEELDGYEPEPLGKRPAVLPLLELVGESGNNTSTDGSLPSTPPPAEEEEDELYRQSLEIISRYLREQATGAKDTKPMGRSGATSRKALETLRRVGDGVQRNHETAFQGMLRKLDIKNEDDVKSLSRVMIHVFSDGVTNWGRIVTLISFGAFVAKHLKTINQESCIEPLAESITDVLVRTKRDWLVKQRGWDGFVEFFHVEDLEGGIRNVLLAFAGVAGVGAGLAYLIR
In short: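 Competitive fluorescence polarization assay in which compounds displace a fluoresceinated peptidomimetic macrocycle tracer from Mcl-1. Affinity constants were obtained by nonlinear regression.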

Bcl-xL = Bcl-xL (Homo sapiens, UniProt Q07817); assay: Ki determination for Bcl-xL (BCL-2 family binding spectrum); conditions: read-out: Ki BCL-XL
Bcl-xL, sequence (Q07817 whole entry, species assumed): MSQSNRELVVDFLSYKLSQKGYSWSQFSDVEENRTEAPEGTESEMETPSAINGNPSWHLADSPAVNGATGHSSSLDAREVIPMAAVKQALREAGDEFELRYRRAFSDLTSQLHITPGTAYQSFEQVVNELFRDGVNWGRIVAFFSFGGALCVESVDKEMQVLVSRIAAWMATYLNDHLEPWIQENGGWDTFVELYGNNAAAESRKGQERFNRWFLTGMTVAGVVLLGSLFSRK
In short: as §1

Row | Ki (Bcl-2) [nM] | Ki (Mcl-1) [nM] | Ki (Bcl-xL) [nM] | Compound
1 | 6 | 1 | 1 | CC[C@H](C)[C@H](NC(C)=O)C(=O)N[C@@H](Cc1c[nH]c2ccccc12)C(=O)N[C@H](C(=O)N[C@@H](C)C(=O)N[C@@H](C)C(=O)N[C@@H](C)C(=O)N[C@@H](CC(C)C)C(=O)N[C@@H](CCCNC(=N)N)C(=O)N[C@]1(C)CCCCCCC=CCCC[C@@](C)(C(=O)N[C@@H](Cc2ccc(O)cc2)C(=O)N[C@@H](Cc2ccc(O)cc2)C(=O)N[C@@H](C)C(N)=O)NC(=O)[C@H](CC(N)=O)NC(=O)[C@H](Cc2ccccc2)NC(=O)[C@H](CCC(=O)O)NC(=O)[C@H](CC(=O)O)NC(=O)CNC(=O)[C@H]([C@@H](C)CC)NC1=O)[C@@H](C)CC [compound 1651] (Ac-IWIAAALR[R8]IGDEFN[S5]YYA-NH2; staple 9-16)
2 | 22 | 6 | 4 | CC[C@H](C)[C@H](NC(C)=O)C(=O)N[C@@H](Cc1c[nH]c2ccccc12)C(=O)N[C@H](C(=O)N[C@@H](C)C(=O)N[C@@H](C)C(=O)N[C@@H](C)C(=O)N[C@@H](CC(C)C)C(=O)N[C@@H](CCCNC(=N)N)C(=O)N[C@]1(C)CCCCCCC=CCCC[C@@](C)(C(=O)N[C@@H](Cc2ccc(O)cc2)C(=O)N[C@@H](Cc2ccc(O)cc2)C(=O)N[C@@H](C)C(N)=O)NC(=O)[C@H](CC(N)=O)NC(=O)[C@H](Cc2ccccc2)NC(=O)[C@H](CCC(N)=O)NC(=O)[C@H](CC(=O)O)NC(=O)CNC(=O)[C@H]([C@@H](C)CC)NC1=O)[C@@H](C)CC [compound 1652] (Ac-IWIAAALR[R8]IGDQFN[S5]YYA-NH2; staple 9-16)
3 | 88.2 | 1.7 | 28.8 | CC[C@H](C)[C@H](NC(C)=O)C(=O)N[C@@H](Cc1c[nH]c2ccccc12)C(=O)N[C@H](C(=O)N[C@@H](C)C(=O)N[C@@H](CCC(N)=O)C(=O)N[C@@H](C)C(=O)N[C@@H](CC(C)C)C(=O)N[C@@H](CCCNC(N)=O)C(=O)N[C@]1(C)CCCCCCC=CCCC[C@@](C)(C(=O)N[C@@H](Cc2ccc(O)cc2)C(=O)N[C@@H](Cc2ccc(O)cc2)C(=O)N[C@@H](C)C(N)=O)NC(=O)[C@H](CC(N)=O)NC(=O)[C@H](Cc2ccccc2)NC(=O)[C@H](CCC(N)=O)NC(=O)[C@H](CC(=O)O)NC(=O)CNC(=O)[C@H]([C@@H](C)CC)NC1=O)[C@@H](C)CC [compound 1656] (Ac-IWIAQAL[Cit][R8]IGDQFN[S5]YYA-NH2; staple 9-16)
4 | > 1000 | > 1000 | > 1000 | CC[C@H](C)[C@H](NC(C)=O)C(=O)N[C@@H](Cc1c[nH]c2ccccc12)C(=O)N[C@H](C(=O)N[C@@H](C)C(=O)N[C@@H](CCC(N)=O)C(=O)N[C@@H](C)C(=O)N[C@@H](CC(C)C)C(=O)N[C@@H](Cc1c[nH]cn1)C(=O)N[C@]1(C)CCCCCCC=CCCC[C@@](C)(C(=O)N[C@@H](Cc2ccc(O)cc2)C(=O)N[C@@H](Cc2ccc(O)cc2)C(=O)N[C@@H](C)C(N)=O)NC(=O)[C@H](CC(N)=O)NC(=O)[C@H](Cc2ccccc2)NC(=O)[C@H](C)NC(=O)[C@H](CC(=O)O)NC(=O)CNC(=O)[C@H]([C@@H](C)CC)NC1=O)[C@@H](C)CC [compound 1657] (Ac-IWIAQALH[R8]IGDAFN[S5]YYA-NH2; staple 9-16)
5 | > 1000 | > 1000 | > 1000 | CC[C@H](C)[C@H](NC(C)=O)C(=O)N[C@@H](Cc1c[nH]c2ccccc12)C(=O)N[C@H](C(=O)N[C@@H](C)C(=O)N[C@@H](CCC(N)=O)C(=O)N[C@@H](C)C(=O)N[C@@H](CC(C)C)C(=O)N[C@@H](Cc1c[nH]cn1)C(=O)N[C@]1(C)CCCCCCC=CCCC[C@@](C)(C(=O)N[C@@H](Cc2ccc(O)cc2)C(=O)N[C@@H](Cc2ccc(O)cc2)C(=O)N[C@@H](C)C(N)=O)NC(=O)[C@H](CC(N)=O)NC(=O)[C@H](Cc2ccccc2)NC(=O)[C@H](CCC(N)=O)NC(=O)[C@H](CC(=O)O)NC(=O)CNC(=O)[C@H]([C@@H](C)CC)NC1=O)[C@@H](C)CC [compound 1658] (Ac-IWIAQALH[R8]IGDQFN[S5]YYA-NH2; staple 9-16)
6 | 140 | 7.5 | 402 | CC[C@H](C)[C@H](NC(C)=O)C(=O)N[C@@H](Cc1c[nH]c2ccccc12)C(=O)N[C@H](C(=O)N[C@@H](C)C(=O)N[C@@H](CCC(N)=O)C(=O)N[C@@H](C)C(=O)N[C@@H](CC(C)C)C(=O)N[C@@H](CCCNC(=N)N)C(=O)N[C@]1(C)CCCCCCC=CCCC[C@@](C)(C(=O)N[C@@H](Cc2ccc(O)cc2)C(=O)N[C@@H](Cc2ccc(O)cc2)C(=O)N[C@@H](C)C(N)=O)NC(=O)[C@H](CC(N)=O)NC(=O)[C@H](C)NC(=O)[C@H](C)NC(=O)[C@H](CC(=O)O)NC(=O)CNC(=O)[C@H]([C@@H](C)CC)NC1=O)[C@@H](C)CC [compound 1661] (Ac-IWIAQALR[R8]IGDAAN[S5]YYA-NH2; staple 9-16)
7 | 25.6 | 116 | 7.7 | CC[C@H](C)[C@H](NC(C)=O)C(=O)N[C@@H](Cc1c[nH]c2ccccc12)C(=O)N[C@H](C(=O)N[C@@H](C)C(=O)N[C@@H](CCC(N)=O)C(=O)N[C@@H](C)C(=O)N[C@@H](CC(C)C)C(=O)N[C@@H](CCCNC(=N)N)C(=O)N[C@]1(C)CCCCCCC=CCCC[C@@](C)(C(=O)N[C@@H](Cc2ccc(O)cc2)C(=O)N[C@@H](Cc2ccc(O)cc2)C(=O)N[C@@H](C)C(N)=O)NC(=O)[C@H](CC(N)=O)NC(=O)[C@H](Cc2ccccc2)NC(=O)[C@H](CCC(N)=O)NC(=O)[C@H](CC(=O)O)NC(=O)[C@H](C)NC(=O)[C@H]([C@@H](C)CC)NC1=O)[C@@H](C)CC [compound 1666] (Ac-IWIAQALR[R8]IADQFN[S5]YYA-NH2; staple 9-16)
8 | 4.8 | 122 | 1.9 | CC[C@H](C)[C@H](NC(C)=O)C(=O)N[C@@H](Cc1c[nH]c2ccccc12)C(=O)N[C@H](C(=O)N[C@@H](C)C(=O)N[C@@H](CCC(N)=O)C(=O)N[C@@H](C)C(=O)N[C@@H](CC(C)C)C(=O)N[C@@H](CCCNC(=N)N)C(=O)N[C@]1(C)CCCCCCC=CCCC[C@@](C)(C(=O)N[C@@H](Cc2ccc(O)cc2)C(=O)N[C@@H](Cc2ccc(O)cc2)C(=O)N[C@@H](C)C(N)=O)NC(=O)[C@H](CC(N)=O)NC(=O)[C@H](Cc2ccccc2)NC(=O)[C@H](CCC(N)=O)NC(=O)[C@H](CC(=O)O)NC(=O)CNC(=O)[C@H](C)NC1=O)[C@@H](C)CC [compound 1668] (Ac-IWIAQALR[R8]AGDQFN[S5]YYA-NH2; staple 9-16)

Row | Compound | Ki (Bcl-2) [nM] | Ki (Mcl-1) [nM] | Ki (Bcl-xL) [nM]
9 | CC[C@H](C)[C@H](NC(C)=O)C(=O)N[C@@H](Cc1c[nH]c2ccccc12)C(=O)N[C@H](C(=O)N[C@@H](C)C(=O)N[C@@H](CCC(N)=O)C(=O)N[C@@H](C)C(=O)N[C@@H](CC(C)C)C(=O)N[C@@H](C)C(=O)N[C@]1(C)CCCCCCC=CCCC[C@@](C)(C(=O)N[C@@H](Cc2ccc(O)cc2)C(=O)N[C@@H](Cc2ccc(O)cc2)C(=O)N[C@@H](C)C(N)=O)NC(=O)[C@H](CC(N)=O)NC(=O)[C@H](Cc2ccccc2)NC(=O)[C@H](C)NC(=O)[C@H](CC(=O)O)NC(=O)CNC(=O)[C@H]([C@@H](C)CC)NC1=O)[C@@H](C)CC [compound 1673] (Ac-IWIAQALA[R8]IGDAFN[S5]YYA-NH2; staple 9-16) | > 1000 | 73.8 | 386
